Reference: PMC4384635, “Autoinhibition of Bruton's tyrosine kinase (Btk) and activation by soluble inositol hexakisphosphate” (eLife, 2015)

Experiments:
[1] = biological target: T1, Bruton's tyrosine kinase (Btk) (Bos taurus, UniProt Q3ZC95, DEL171-383/L542M/S543T/V555T/R562K/S564A/P565S); assay type: binding
T1 construct: PH-TH-kinase construct (residues 1 to 170 connected to residues 384 to 659)

[2] = biological target: T2, Bruton's tyrosine kinase (Btk) (Bos taurus, UniProt Q3ZC95); assay: ITC; assay type: binding
T2 construct: PH-TH module (residues 1 to 172)

[3] = biological target: T2, Bruton's tyrosine kinase (Btk); assay: ITC; crystal structure at […] Å; also activates full-length Btk (EC50 around […]); assay type: binding
[4] = biological target: T3, Bruton's tyrosine kinase (Btk) (Bos taurus, UniProt Q3ZC95, N24D/R28C); assay: ITC with the canonical-site mutant (also printed as R28C/N24D and R28C/N24E); assay type: binding
T3 construct: PH-TH module (residues 1 to 172)

[5] = biological target: PH-TH module of bovine Btk (residues 1 to 172) (bovine) (UniProt Q3ZC95); assay: not stated; preliminary studies; dimerization of the PH-TH module induced by IP6; dimer to monomers
[6] = biological target: Src-like module of mouse Btk (SH3-SH2-kinase module, residues 214 to 659) (mouse) (UniProt P35991); assay: cross-linking; peak B; disuccinimidyl glutarate and PAGE analysis; results not shown
[7] = biological target: Src-like module of mouse Btk (SH3-SH2-kinase module, residues 214 to 659) (mouse) (UniProt P35991); assay: SEC; peak B from mono-Q, HiPrep S-200 16/60, 25 mM Tris·Cl pH 8.5, 25 mM NaCl, 5 mM DTT, 4°C

T2 sequence (Q3ZC95 1-172): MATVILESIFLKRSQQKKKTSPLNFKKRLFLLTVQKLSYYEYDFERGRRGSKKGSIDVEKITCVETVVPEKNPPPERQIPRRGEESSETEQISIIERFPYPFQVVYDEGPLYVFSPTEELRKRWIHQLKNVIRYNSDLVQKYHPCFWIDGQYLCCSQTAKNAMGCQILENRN
T1 sequence (Q3ZC95 entry or part of it DEL171-383/L542M/S543T/V555T/R562K/S564A/P565S): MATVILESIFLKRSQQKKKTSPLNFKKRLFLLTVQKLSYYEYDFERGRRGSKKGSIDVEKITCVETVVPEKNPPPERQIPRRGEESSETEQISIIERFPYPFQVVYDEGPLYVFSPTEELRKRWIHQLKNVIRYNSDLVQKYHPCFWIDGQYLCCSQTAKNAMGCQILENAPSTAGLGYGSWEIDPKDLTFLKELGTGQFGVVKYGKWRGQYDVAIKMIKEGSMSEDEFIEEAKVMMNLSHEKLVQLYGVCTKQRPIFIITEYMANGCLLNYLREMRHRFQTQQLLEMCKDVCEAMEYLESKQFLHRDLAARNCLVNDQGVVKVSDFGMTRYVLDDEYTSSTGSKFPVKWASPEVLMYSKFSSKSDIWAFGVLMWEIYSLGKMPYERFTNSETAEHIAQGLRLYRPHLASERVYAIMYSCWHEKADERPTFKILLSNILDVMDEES
T3 sequence (Q3ZC95 1-172 N24D/R28C): as the sequence (Q3ZC95 1-172) above, with N24D, R28C counted along it

Question: `Cc1c(NC(=O)c2ccc(C(C)(C)C)cc2)cccc1-c1cn(C)c(=O)c(Nc2ccc(C(=O)N3CCOCC3)cc2)n1` [CGI1746] was tested. Which “crystal structure at 1.7 Å” value [1] did it give?
Answer: structure of the PH-TH-kinase with a bound ATP-competitive inhibitor (CGI1746

Question: `O=P(O)(O)O[C@H]1[C@H](O)[C@@H](OP(=O)(O)O)[C@H](OP(=O)(O)O)[C@@H](OP(=O)(O)O)[C@H]1O` [IP4, inositol tetrakisphosphate] was tested. Which Kd [2] did it give?
Answer: 26 ± 6 nM

Question: How did the Kd [3] turn out when `O=P(O)(O)O[C@H]1[C@H](OP(=O)(O)O)[C@@H](OP(=O)(O)O)[C@H](OP(=O)(O)O)[C@@H](OP(=O)(O)O)[C@H]1OP(=O)(O)O` [IP6, inositol hexakisphosphate] was run?
Answer: 238 ± 32 nM

Question: What about the Kd [4] of the same molecule?
Answer: 4760 ± 700 nM

Question: With “PH-TH module of bovine Btk (residues 1 to 172) (from UniProt Q3ZC95 1-172) (domain or fragment)” as the molecule, how does the Kd [5] read?
Answer: > 100000 nM

Question: For “Src-like module of mouse Btk (SH3-SH2-kinase module, residues 214 to 659) (from UniProt P35991 214-659) (domain or fragment)”, which stoichiometry N [6] is on record?
Answer: 2

Question: What about the stoichiometry N [7] of the same molecule?
Answer: 2
